As usually defined, the IC50 is the concentration needed to halve the response being measured. A higher IC50 goes with weaker potency. A word on the inhibition: it is the change of the read-out against control, counted positive when it falls. A low value points to a weak effect.

The structures appear in SMILES notation.

This note sets out measurements from patent US9649313B2, “Use of ITK inhibitors for the treatment of cancer” (The University of North Carolina at Chapel Hill, priority 2012, dated 2017).

The experiment addresses T1, ABL (Homo sapiens, UniProt P00519).
T1 construct: purchased Carna Biosciences
As to the kind of experiment: cell-free kinase assay. In kind it is biochemical. An excerpt:
We investigated the potency and selectivity of BI 10N against 56 kinases using a cell-free assay (Table 8A). […] The selectivity of this inhibitor was investigated by testing the potency of the inhibitor at two concentrations with 53 kinases by Carna Biosciences (MA) (Table 2).

T1 sequence (P00519 whole entry): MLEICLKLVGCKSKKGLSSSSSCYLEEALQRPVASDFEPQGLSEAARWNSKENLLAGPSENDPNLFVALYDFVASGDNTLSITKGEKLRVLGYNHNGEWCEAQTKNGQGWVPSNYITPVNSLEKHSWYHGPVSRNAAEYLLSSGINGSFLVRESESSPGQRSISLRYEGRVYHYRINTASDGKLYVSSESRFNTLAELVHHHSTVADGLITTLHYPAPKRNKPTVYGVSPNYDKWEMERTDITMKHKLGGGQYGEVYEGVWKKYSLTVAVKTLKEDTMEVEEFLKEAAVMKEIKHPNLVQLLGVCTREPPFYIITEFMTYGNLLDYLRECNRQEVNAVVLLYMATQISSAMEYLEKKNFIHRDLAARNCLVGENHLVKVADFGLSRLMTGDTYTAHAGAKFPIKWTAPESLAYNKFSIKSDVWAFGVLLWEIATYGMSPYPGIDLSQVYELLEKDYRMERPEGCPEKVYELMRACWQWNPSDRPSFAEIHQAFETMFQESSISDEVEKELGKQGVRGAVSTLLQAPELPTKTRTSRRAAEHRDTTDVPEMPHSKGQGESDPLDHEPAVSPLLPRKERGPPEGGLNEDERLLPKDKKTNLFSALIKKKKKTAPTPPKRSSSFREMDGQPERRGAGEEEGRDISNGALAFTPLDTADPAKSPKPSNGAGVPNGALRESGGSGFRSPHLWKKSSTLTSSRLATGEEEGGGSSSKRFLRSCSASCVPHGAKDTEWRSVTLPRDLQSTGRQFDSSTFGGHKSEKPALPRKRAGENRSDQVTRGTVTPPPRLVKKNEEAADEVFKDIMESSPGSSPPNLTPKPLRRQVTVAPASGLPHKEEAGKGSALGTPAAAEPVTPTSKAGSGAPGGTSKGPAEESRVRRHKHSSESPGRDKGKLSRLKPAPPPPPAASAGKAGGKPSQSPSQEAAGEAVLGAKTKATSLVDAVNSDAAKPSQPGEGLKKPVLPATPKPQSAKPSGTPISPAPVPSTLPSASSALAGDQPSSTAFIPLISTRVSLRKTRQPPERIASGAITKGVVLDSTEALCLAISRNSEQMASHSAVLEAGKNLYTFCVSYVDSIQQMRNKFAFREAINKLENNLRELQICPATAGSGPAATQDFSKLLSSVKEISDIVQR

For the setting “Table 2, by Carna Biosciences”, `CC(C)C(C)CNCc1ccc2c(c1)[nH]/c(=N\C(=O)c1ccc(C3=CN=NC3)s1)n2CC(C)(C)O` (centres unmarked) [BI 10N] came in with an IC50 of 23.5 nM. Moreover, the inhibition at 0.2 µM (single inhibitor concentration) worked out at 91.9%.
